From article PMC8595511 (Experimental eye research, 2021)

Experiments:
[1] = biological target: T1, recombinant mouse retbindin (mRTBN, RTBDN) (Mus musculus, UniProt Q8QZY4); assay: bio-layer interferometry; format: binding; conditions: PBS
T1 sequence (Q8QZY4 32-247): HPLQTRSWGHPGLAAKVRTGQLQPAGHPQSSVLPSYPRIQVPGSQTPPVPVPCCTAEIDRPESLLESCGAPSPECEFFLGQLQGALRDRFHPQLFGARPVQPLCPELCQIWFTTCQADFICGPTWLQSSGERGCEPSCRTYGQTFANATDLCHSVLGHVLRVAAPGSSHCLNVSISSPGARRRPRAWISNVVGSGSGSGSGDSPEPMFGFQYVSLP

[2] = biological target: Bovine Interphotoreceptor Retinoid Binding Protein (bIRBP) (Bos taurus, UniProt P12661); assay: bio-layer interferometry; conditions: PBS; ligand predissolved in DMSO, 1-10 μM
Sequence of Bovine Interphotoreceptor Retinoid Binding Protein (bIRBP) (P12661 23-1286): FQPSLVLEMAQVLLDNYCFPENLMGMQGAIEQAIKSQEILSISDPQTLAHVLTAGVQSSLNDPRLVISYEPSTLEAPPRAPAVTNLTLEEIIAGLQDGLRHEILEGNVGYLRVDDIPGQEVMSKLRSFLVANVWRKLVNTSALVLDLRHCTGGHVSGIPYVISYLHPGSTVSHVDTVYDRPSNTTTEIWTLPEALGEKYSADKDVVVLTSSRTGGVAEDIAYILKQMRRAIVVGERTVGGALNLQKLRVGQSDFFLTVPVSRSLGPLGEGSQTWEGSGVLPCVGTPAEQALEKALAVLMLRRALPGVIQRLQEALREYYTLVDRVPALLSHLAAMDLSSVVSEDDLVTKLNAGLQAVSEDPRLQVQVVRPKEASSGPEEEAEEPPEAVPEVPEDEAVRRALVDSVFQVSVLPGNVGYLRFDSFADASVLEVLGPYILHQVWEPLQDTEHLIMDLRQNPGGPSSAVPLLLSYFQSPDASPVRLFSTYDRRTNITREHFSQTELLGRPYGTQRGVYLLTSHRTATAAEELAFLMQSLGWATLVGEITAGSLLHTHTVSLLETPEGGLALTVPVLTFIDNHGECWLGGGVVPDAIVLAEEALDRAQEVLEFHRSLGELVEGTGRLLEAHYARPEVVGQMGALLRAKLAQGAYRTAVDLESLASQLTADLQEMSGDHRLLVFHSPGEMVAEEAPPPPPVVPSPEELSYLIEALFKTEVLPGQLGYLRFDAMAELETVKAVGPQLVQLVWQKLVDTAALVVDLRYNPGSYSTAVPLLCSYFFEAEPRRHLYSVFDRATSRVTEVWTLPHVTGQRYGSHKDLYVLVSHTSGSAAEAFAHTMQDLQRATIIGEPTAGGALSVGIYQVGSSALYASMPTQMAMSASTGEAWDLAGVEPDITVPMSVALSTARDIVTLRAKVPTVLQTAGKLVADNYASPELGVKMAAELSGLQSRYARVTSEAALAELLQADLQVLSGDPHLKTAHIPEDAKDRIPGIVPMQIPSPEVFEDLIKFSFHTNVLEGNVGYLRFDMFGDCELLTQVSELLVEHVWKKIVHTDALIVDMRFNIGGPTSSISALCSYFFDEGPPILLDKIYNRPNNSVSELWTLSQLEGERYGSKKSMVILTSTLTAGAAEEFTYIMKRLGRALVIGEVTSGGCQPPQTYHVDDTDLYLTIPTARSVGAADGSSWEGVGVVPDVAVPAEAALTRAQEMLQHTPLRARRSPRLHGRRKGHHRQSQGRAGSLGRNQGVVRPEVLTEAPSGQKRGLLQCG

`CC1=C(/C=C/C(C)=C\C=C\C(C)=C\C=O)C(C)(C)CCC1` [9-cis retinal] was tested, and the Dissociation constant [1] was “Dissociation constants for retinoids, flavins and fluorescein (as a control) on retbindin”.

In the case of `CC1=C(/C=C/C(C)=C\C=C\C(C)=C\C(=O)O)C(C)(C)CCC1` [9-cis retinoic acid], the Dissociation constant [1] is reported as “Dissociation constants for retinoids, flavins and fluorescein (as a control) on retbindin”.

`CC1=C(/C=C/C(C)=C/C=C\C(C)=C\C=O)C(C)(C)CCC1` [11-cis retinal] was tested, and the Dissociation constant ([1]; ligand predissolved in DMSO, 1-10 μM) was “the protein showed significant affinity for several retinoids, particularly for 11-cis retinal” and the Dissociation constant [2] was “very similar to the well characterized 11-cis retinal transport protein IRBP”.

For `CC1=C(/C=C/C(C)=C/C=C\C(C)=C\C(=O)O)C(C)(C)CCC1` [11-cis retinoic acid], the Dissociation constant [1] was “Dissociation constants for retinoids, flavins and fluorescein (as a control) on retbindin”.

In the case of `Cc1cc2nc3c(=O)[nH]c(=O)nc-3n(C[C@H](O)[C@H](O)[C@H](O)COP(=O)(O)O)c2cc1C` [FMN], the Dissociation constant ([1]; 1-100 μM) is reported as “Dissociation constants for retinoids, flavins and fluorescein (as a control) on retbindin”.

In the case of `CC1=C(/C=C/C(C)=C/C=C/C(C)=C/C=O)C(C)(C)CCC1` [all trans retinal], the Dissociation constant [1] is reported as “Dissociation constants for retinoids, flavins and fluorescein (as a control) on retbindin”.

In the case of `O=C1OC2(c3ccc(O)cc3Oc3cc(O)ccc32)c2ccccc21` [fluorescein, reference compound], the Dissociation constant ([1]; 1-100 μM) is reported as “Dissociation constants for retinoids, flavins and fluorescein (as a control) on retbindin”.

With `Cc1cc2nc3c(=O)[nH]c(=O)nc-3n(C[C@H](O)[C@H](O)[C@H](O)CO)c2cc1C` [riboflavin] the Dissociation constant ([1]; 1-100 μM) was “Dissociation constants for retinoids, flavins and fluorescein (as a control) on retbindin”.
